Laboratory results taken from patent publication US20200361914A1, “SUBSTITUTED BENZENE AND 6,5-FUSED BICYCLIC HETEROARYL COMPOUNDS” (Epizyme, Inc., priority 2014, published 2020).
Where two headings read alike, the source gives them in different places.

Legend:
[1] = target: wild-type PRC2 enzyme (EZH2 WT) (Homo sapiens, UniProt Q15910); assay: PRC2 enzyme assay on peptide substrate, wild-type EZH2
From the text: (§1) S-adenosylmethionine (SAM), S-adenosylhomocyteine (SAH), bicine, KCl, Tween20, dimethylsulfoxide (DMSO) and bovine skin gelatin (BSG) can be purchased from Sigma-Aldrich at the highest level of purity possible. Dithiothreitol (DTT) was purchased from EMD. ^3H-SAM can be purchased from American Radiolabeled Chemicals with a specific activity of 80 C1/mmol. 384-well streptavidin Flashplates can be purchased from PerkinElmer.
(§2) Recombinant PRC2 Enzymes. Human PRC2 enzymes are purified as 4-component enzyme complexes co-expressed in Spodoptera frugiperda (sf9) cells using a baculovirus expression system. […] The EED subunit contains an N-terminal FLAG tag that is used to purify the entire 4-component complex from sf9 cell lysates. The purity of the complexes meets or exceeds 95% as determined by SDS-PAGE and Agilent Bioanalyzer analysis.
(§3) General Procedure for PRC2 Enzyme Assays on Peptide Substrates. The assays are all performed in a buffer consisting of 20 mM bicine (pH=7.6), 0.5 mM DTT, 0.005% BSG and 0.002% Tween20, prepared on the day of use. […] DMSO (1 μL) is added to columns 11, 12, 23, 24, rows A-H for the maximum signal control, and SAH, a known product and inhibitor of PRC2 (1 μL) is added to columns 11, 12, 23, 24, rows I-P for the minimum signal control. A cocktail (40 μL) containing the wild-type PRC2 enzyme and H3K27me0 peptide or any of the Y641 mutant enzymes and H3K27me2 peptide is added by Multidrop Combi (Thermo). The compounds are allowed to incubate with PRC2 for 30 min at 25° C., then a cocktail (10 μL) containing a mixture of non-radioactive and ^3H-SAM is added to initiate the reaction (final volume=51 μL). […] The assays are stopped by the addition of non-radioactive SAM (10 μL) to a final concentration of 600 μM, which dilutes the ^3H-SAM to a level where its incorporation into the peptide substrate is no longer detectable. 50 μL of the reaction in the 384-well polypropylene plate is then transferred to a 384-well Flashplate and the biotinylated peptides are allowed to bind to the streptavidin surface for at least 1h before being washed three times with 0.1% Tween20 in a Biotek ELx405 plate washer. The plates are then read in a PerkinElmer TopCount platereader to measure the quantity of ^3H-labeled peptide bound to the Flashplate surface, measured as disintegrations per minute (dpm) or alternatively, referred to as counts per minute (cpm).
(§4) Where dpm=disintegrations per minute, cmpd=signal in assay well, and min and max are the respective minimum and maximum signal controls.
(§5) Where top and bottom are the normally allowed to float, but may be fixed at 100 or 0 respectively in a 3-parameter fit. The Hill Coefficient normally allowed to float but may also be fixed at 1 in a 3-parameter fit. Y is the % inhibition and X is the compound concentration.

[2] = target: Y641 mutant PRC2 enzyme (EZH2 Y641) (Homo sapiens, UniProt Q15910, Y641F); assay: PRC2 enzyme assay on peptide substrate, Y641 mutant EZH2
From the text: as §1, §2, §3, §4, §5

[3] = EZH2 WT IC50 (μM), wild-type PRC2 enzyme, H3K27me0 peptide substrate
[4] = EZH2 Y641 IC50 (μM), Y641 mutant EZH2 such as Y641F, H3K27me2 peptide substrate

Sequence of Y641 mutant PRC2 enzyme (EZH2 Y641) (Q15910 whole entry Y641F): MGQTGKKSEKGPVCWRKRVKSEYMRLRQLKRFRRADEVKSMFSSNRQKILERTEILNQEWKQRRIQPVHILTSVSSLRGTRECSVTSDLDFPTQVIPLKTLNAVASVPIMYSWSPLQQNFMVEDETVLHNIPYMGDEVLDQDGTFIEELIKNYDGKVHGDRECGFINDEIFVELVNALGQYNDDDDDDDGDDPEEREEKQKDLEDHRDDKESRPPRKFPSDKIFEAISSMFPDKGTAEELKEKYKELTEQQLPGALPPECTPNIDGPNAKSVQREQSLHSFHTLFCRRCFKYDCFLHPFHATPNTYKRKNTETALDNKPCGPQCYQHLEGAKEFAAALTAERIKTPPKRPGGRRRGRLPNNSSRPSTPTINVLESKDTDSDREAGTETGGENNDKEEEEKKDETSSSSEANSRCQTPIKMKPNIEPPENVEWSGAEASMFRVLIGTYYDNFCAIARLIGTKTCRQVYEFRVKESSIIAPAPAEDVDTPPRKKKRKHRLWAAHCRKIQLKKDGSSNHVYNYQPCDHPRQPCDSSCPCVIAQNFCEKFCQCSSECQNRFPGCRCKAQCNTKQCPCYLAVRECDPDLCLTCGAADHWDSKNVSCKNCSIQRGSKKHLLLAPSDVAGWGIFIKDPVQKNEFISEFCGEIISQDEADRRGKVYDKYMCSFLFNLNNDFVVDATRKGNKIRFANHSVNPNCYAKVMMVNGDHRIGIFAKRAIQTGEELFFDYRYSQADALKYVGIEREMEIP
Sequence of Y641 mutant PRC2 enzyme (EZH2 Y641) (O75530 whole entry partner): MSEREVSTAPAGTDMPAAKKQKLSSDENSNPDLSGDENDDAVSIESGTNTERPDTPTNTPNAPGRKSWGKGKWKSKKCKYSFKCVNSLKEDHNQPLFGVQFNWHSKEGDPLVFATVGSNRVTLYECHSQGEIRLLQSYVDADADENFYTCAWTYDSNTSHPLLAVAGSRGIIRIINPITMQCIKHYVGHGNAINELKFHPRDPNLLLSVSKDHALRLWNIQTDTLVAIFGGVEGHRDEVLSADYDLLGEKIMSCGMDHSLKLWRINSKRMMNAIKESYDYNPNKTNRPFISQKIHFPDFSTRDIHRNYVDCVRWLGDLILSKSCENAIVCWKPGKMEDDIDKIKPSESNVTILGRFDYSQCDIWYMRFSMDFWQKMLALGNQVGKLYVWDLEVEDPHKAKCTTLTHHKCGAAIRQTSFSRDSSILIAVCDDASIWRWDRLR
Sequence of Y641 mutant PRC2 enzyme (EZH2 Y641) (Q15022 whole entry partner): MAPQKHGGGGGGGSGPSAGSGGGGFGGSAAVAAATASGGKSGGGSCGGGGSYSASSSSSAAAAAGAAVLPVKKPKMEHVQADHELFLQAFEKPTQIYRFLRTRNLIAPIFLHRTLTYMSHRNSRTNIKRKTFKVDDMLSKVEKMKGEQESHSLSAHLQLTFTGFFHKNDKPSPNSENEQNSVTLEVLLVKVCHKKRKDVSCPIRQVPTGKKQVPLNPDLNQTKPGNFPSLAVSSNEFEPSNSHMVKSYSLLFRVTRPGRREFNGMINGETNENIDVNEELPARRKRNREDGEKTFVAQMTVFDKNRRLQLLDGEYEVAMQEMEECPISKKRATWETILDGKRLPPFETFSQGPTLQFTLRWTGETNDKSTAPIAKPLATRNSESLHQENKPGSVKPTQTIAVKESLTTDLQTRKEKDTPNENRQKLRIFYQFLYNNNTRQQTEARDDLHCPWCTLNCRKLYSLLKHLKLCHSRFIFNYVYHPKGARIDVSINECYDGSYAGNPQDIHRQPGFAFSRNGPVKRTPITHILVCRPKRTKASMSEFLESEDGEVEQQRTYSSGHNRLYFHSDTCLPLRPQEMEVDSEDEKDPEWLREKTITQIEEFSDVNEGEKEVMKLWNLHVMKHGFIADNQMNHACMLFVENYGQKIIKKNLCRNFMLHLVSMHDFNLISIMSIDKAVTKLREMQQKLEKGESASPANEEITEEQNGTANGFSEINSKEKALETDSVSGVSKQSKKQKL
Sequence of Y641 mutant PRC2 enzyme (EZH2 Y641) (Q09028 whole entry partner): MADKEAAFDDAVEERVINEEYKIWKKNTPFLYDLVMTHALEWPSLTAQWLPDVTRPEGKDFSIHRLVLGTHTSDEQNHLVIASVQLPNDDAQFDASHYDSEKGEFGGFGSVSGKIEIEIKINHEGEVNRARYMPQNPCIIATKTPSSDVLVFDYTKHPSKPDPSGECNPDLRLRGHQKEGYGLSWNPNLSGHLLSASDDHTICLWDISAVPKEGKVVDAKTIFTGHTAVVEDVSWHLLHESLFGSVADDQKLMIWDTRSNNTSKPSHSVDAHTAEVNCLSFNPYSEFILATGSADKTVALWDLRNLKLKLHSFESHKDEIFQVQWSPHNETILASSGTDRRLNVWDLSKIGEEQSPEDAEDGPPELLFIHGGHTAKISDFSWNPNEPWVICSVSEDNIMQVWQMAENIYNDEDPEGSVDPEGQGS
Sequence of wild-type PRC2 enzyme (EZH2 WT) (Q15910 whole entry): as the sequence (Q15910 whole entry Y641F) above, with F641Y counted along it
Sequence of wild-type PRC2 enzyme (EZH2 WT) (O75530 whole entry partner): as the sequence (O75530 whole entry partner) above
Sequence of wild-type PRC2 enzyme (EZH2 WT) (Q15022 whole entry partner): as the sequence (Q15022 whole entry partner) above
Sequence of wild-type PRC2 enzyme (EZH2 WT) (Q09028 whole entry partner): as the sequence (Q09028 whole entry partner) above

| Structure (SMILES) | IC50 [1] | IC50 [2] | IC50 [1, 3] | IC50 [2, 4] |
| --- | --- | --- | --- | --- |
| COc1c(CNC(=O)c2ccc(C(C)Oc3ccccc3)c(Cl)c2)c(C)nn1C (stereo not drawn) [compound 2, 3-chloro-N-((5-methoxy-1,3-dimethyl-1H-pyrazol-4-yl)methyl)-4-(1-phenoxyethyl)benzamide] | > 50 µM | > 50 µM | – | – |
| Cc1[nH]n(C)c(=O)c1CNC(=O)c1ccc(C(C)Oc2ccccc2)c(Cl)c1 (stereo not drawn) [compound 3, 3-chloro-N-((2,5-dimethyl-3-oxo-2,3-dihydro-1H-pyrazol-4-yl)methyl)-4-(1-phenoxyethyl)benzamide] | > 50 µM | > 50 µM | – | – |
| Cc1c(CNC(=O)c2ccc(C(C)Oc3ccccc3)c(Cl)c2)c(=O)[nH]n1C (stereo not drawn) [compound 4, 3-chloro-N-((1,5-dimethyl-3-oxo-2,3-dihydro-1H-pyrazol-4-yl)methyl)-4-(1-phenoxyethyl)benzamide] | > 50 µM | > 50 µM | – | – |
| COc1c(CNC(=O)c2ccc(C(C)Oc3ccccc3)cc2C)c(C)nn1C (stereo not drawn) [compound 7, N-((5-methoxy-1,3-dimethyl-1H-pyrazol-4-yl)methyl)-2-methyl-4-(1-phenoxyethyl)benzamide] | > 50 µM | > 50 µM | – | – |
| Cc1cc(C(C)Oc2ccccc2)ccc1C(=O)NCc1c(C)n(C)[nH]c1=O (stereo not drawn) [compound 8, N-((1,5-dimethyl-3-oxo-2,3-dihydro-1H-pyrazol-4-yl)methyl)-2-methyl-4-(1-phenoxyethyl)benzamide] | > 50 µM | > 50 µM | – | – |
| COc1nn(C)c(C)c1CNC(=O)c1cc(Cl)c(C(C)Oc2ccccc2)cc1C (stereo not drawn) [compound 9, 5-chloro-N-((3-methoxy-1,5-dimethyl-1H-pyrazol-4-yl)methyl)-2-methyl-4-(1-phenoxyethyl)benzamide] | > 50 µM | > 50 µM | – | – |
| Cc1cc(C(C)Oc2ccccc2)c(Cl)cc1C(=O)NCc1c(C)n(C)[nH]c1=O (stereo not drawn) [compound 10, 5-chloro-N-((1,5-dimethyl-3-oxo-2,3-dihydro-1H-pyrazol-4-yl)methyl)-2-methyl-4-(1-phenoxyethyl)benzamide] | 10 to 50 µM | 10 to 50 µM | – | – |
| Cc1cc(=O)c(CNC(=O)c2cc(Cl)c(C(C)Oc3ccccc3)cc2C)c(C)[nH]1 (stereo not drawn) [compound 11, 5-chloro-N-((2,6-dimethyl-4-oxo-1,4-dihydropyridin-3-yl)methyl)-2-methyl-4-(1-phenoxyethyl)benzamide] | 10 to 50 µM | 1 to 10 µM | – | – |
| Cc1cc(=O)c(CNC(=O)c2ccc(Oc3cccc(-c4ccnnc4)c3C#N)c(Cl)c2)c(C)[nH]1 [compound 13, 3-chloro-4-(2-cyano-3-(pyridazin-4-yl)phenoxy)-N-((2,6-dimethyl-4-oxo-1,4-dihydropyridin-3-yl)methyl)benzamide] | 10 to 50 µM | 1 to 10 µM | – | – |
| COc1nn(C)c(C)c1CNC(=O)c1ccc(Oc2cccc(-c3ccnnc3)c2C#N)c(Cl)c1 [compound 14, 3-chloro-4-(2-cyano-3-(pyridazin-4-yl)phenoxy)-N-((3-methoxy-1,5-dimethyl-1H-pyrazol-4-yl)methyl)benzamide] | > 50 µM | > 50 µM | – | – |
| Cc1c(CNC(=O)c2ccc(Oc3cccc(-c4ccnnc4)c3C#N)c(Cl)c2)c(=O)[nH]n1C [compound 15, 3-chloro-4-(2-cyano-3-(pyridazin-4-yl)phenoxy)-N-((1,5-dimethyl-3-oxo-2,3-dihydro-1H-pyrazol-4-yl)methyl)benzamide] | 10 to 50 µM | 10 to 50 µM | – | – |
| COc1nn(C)c(C)c1CNC(=O)c1cc(Cl)c(Oc2cccc(-c3ccnnc3)c2C#N)cc1C [compound 17, 5-chloro-4-(2-cyano-3-(pyridazin-4-yl)phenoxy)-N-((3-methoxy-1,5-dimethyl-1H-pyrazol-4-yl)methyl)-2-methylbenzamide] | > 50 µM | > 50 µM | – | – |
| Cc1cc(Oc2cccc(-c3ccnnc3)c2C#N)c(Cl)cc1C(=O)NCc1c(C)n(C)[nH]c1=O [compound 18, 5-chloro-4-(2-cyano-3-(pyridazin-4-yl)phenoxy)-N-((1,5-dimethyl-3-oxo-2,3-dihydro-1H-pyrazol-4-yl)methyl)-2-methylbenzamide] | 1 to 10 µM | 1 to 10 µM | – | – |
| COc1nn(C)c(C)c1CNC(=O)c1c(C)n(C(C)C2CCOCC2)c2ccccc12 (stereo not drawn) [compound 22, N-((3-methoxy-1,5-dimethyl-1H-pyrazol-4-yl)methyl)-2-methyl-1-(1-(tetrahydro-2H-pyran-4-yl)ethyl)-1H-indole-3-carboxamide] | – | – | > 50 µM | > 50 µM |
| Cc1c(CNC(=O)c2c(C)n(C(C)C3CCOCC3)c3ccccc23)c(=O)[nH]n1C (stereo not drawn) [compound 23, N-((1,5-dimethyl-3-oxo-2,3-dihydro-1H-pyrazol-4-yl)methyl)-2-methyl-1-(1-(tetrahydro-2H-pyran-4-yl)ethyl)-1H-indole-3-carboxamide] | – | – | > 50 µM | 10 to 50 µM |
| CCC(C)n1cc(C)c2c(C(=O)NCc3c(OC)nn(C)c3C)cc(-c3ccc(N4CCNCC4)nc3)cc21 (stereo not drawn) [compound 27, 1-(sec-butyl)-N-((3-methoxy-1,5-dimethyl-1H-pyrazol-4-yl)methyl)-3-methyl-6-(6-(piperazin-1-yl)pyridin-3-yl)-1H-indole-4-carboxamide] | 1 to 10 µM | 0.1 to 1 µM | – | – |
| CCC(C)n1cc(C)c2c(C(=O)NCc3c(C)n(C)[nH]c3=O)cc(-c3ccc(N4CCNCC4)nc3)cc21 (stereo not drawn) [compound 28, 1-(sec-butyl)-N-((1,5-dimethyl-3-oxo-2,3-dihydro-1H-pyrazol-4-yl)methyl)-3-methyl-6-(6-(piperazin-1-yl)pyridin-3-yl)-1H-indole-4-carboxamide] | 10 to 50 µM | 1 to 10 µM | – | – |
| CCC(C)n1cc(C)c2c(C(=O)NCc3c(OC)nn(CC)c3C)cc(-c3ccc(N4CCNCC4)nc3)cc21 (stereo not drawn) [compound 29, 1-(sec-butyl)-N-((1-ethyl-3-methoxy-5-methyl-1H-pyrazol-4-yl)methyl)-3-methyl-6-(6-(piperazin-1-yl)pyridin-3-yl)-1H-indole-4-carboxamide] | 1 to 10 µM | 1 to 10 µM | – | – |
| CCN(c1cc(Cl)cc(C(=O)NC2CC(C)(C)NC(C)(C)C2)c1C)[C@H]1CC[C@H](N(C)C)CC1 [compound 31, 5-chloro-3-(((trans)-4-(dimethylamino)cyclohexyl)(ethyl)amino)-2-methyl-N-(2,2,6,6-tetramethylpiperidin-4-yl)benzamide] | > 50 µM | > 50 µM | – | – |
| CCN(c1cc(Cl)cc(C(=O)NC2CC(C)(C)NC(C)(C)C2)c1C)[C@H]1CC[C@H](N(C)CCOC)CC1 [compound 32, 5-chloro-3-(ethyl((trans)-4-((2-methoxyethyl)-(methyl)-amino)-cyclohexyl)amino)-2-methyl-N-(2,2,6,6-tetramethylpiperidin-4-yl)benzamide] | > 50 µM | > 50 µM | – | – |
| CCN(c1cc(-c2ccc(OCCOC)cc2)cc(C(=O)NC2CC(C)(C)NC(C)(C)C2)c1C)C1CCOCC1 [compound 34, 5-(ethyl(tetrahydro-2H-pyran-4-yl)amino)-4′-(2-methoxyethoxy)-4-methyl-N-(2,2,6,6-tetramethylpiperidin-4-yl)-[1,1′-biphenyl]-3-carboxamide] | > 50 µM | > 50 µM | – | – |
